Data: patent US20160089371A1, “Combination of Kinase Inhibitors and Uses Thereof” (INTELLIKINE, LLC, priority 2013, published 2016)
Where “and” joins values, the source holds several entries; their conditions need not be identical. Equal values may be shown once.

What was measured:
MDA-MB-361 xenografts = test: Antitumor activity and tumor regrowth, MDA-MB-361 xenografts (Example 42); assay type: in vivo, Mus musculus
Protocol: (room temperature), shielded from light. The test article Compound A was prepared in 5% NMP+95% PEG400 every 5 to 7 days and stored at approximately 25° C. (room temperature), shielded from light. The control article used in this study was 5% NMP+95% PEG400. Compounds were completely dissolved in NMP by sonication, followed by the addition of an appropriate volume of PEG400, and the final solution was vortexed and sonicated to ensure thorough mixing.
Low-passage MDA-MB-361 cells were grown in Eagle's Minimal Essential Medium (EMEM) media supplemented with 20% fetal bovine serum (FBS) and 1× penicillin/streptomycin (Invitrogen, Carlsbad, Calif., USA) until approximately 80% confluency was reached. Before injection, the cells were detached with GIBCO® trypsin (Invitrogen), washed twice with phosphate-buffered saline (PBS), and resuspended in Roswell Park Memorial Institute (RPMI) media (Invitrogen) without supplements. Cells were resuspended to a final concentration of 5×10^7 cells/mL in RPMI media without supplements. […]
Female 5 to 6-week old female (athymic nu/nu) nude mice were inoculated SC in the flank with 5.0×10^6 MDA-MB-361 cells. Tumor growth was monitored with vernier calipers. The MTV was calculated using the formula V=W^2×L÷2. […] Tumor growth and body weight were measured twice weekly. Percent TGI and body weight change were calculated on Day 29. […] The remaining mice continued on study until Day 65, and tumor size and body weight in these mice were measured every 9 to 11 days.
Antitumor activity was determined by calculating the percent TGI using Equation 1: Percent TGI)=(MTV of the control group−MTV of a treated group)÷MTV of the control group×100
Tumor growth delay was determined by calculating the time until MTV in a given treatment group reached 1000 mm^3 versus the time until MTV in the control group reached 1000 mm^3.
The differences in trends of tumor growth over time between pairs of treatment groups were assessed using linear mixed-effects regression models. These models account for the fact that each animal was measured at multiple time points. […]

[1] = tested on: tumor cells harboring PI3K α mutations; test: Proliferation of tumor cells with or without PI3K α mutations; assay type: cell-based; conditions: FIG. 13
[2] = tested on: PI3 kinase signaling pathway in MDA-MB-361, HCC-1419 and NCI-H1048 cells; test: Cellular signaling immunoblot in human tumor cell lines; assay type: cell-based; conditions: single agents; Compound B 5-100 nM, Compound A 1 and 3 μM; 2 or 24 hours
Protocol: Compound A was synthesized at Intellikine and was supplied as a stock of 10 mM in 100% DMSO and diluted in the respective cell line's growth media.
Prior to treatment, cells were plated at 2×10^5 cells/well in 12-well plates in normal growth media and grown to 80% confluence. Cells were treated for 2 or 24 hours in a CO2 incubator set to 37° C. with normal growth media containing inhibitor diluted in DMSO.
Media was aspirated, cells were washed with 1×PBS, Ice cold 1× Cell Lysis Buffer was prepared from 10× stock and 100 μM 4-(2-Aminoethyl) benzenesulfonyl fluoride hydrochloride (AEBSF) andlmM sodium orthovanadate […] was added. Cells were lysed by adding 1× Cell Lysis Buffer (100 μL per well of 12-well plate of cells). Cells incubated on ice for 20 to 30 minutes to allow complete lysis, and lysates were transferred to microcentrifuge tubes, sonicated for 10 seconds, and subjected to microcentrifugation at 14,000×g for 10 minutes at 4° C. Cleared supernatants were transferred to fresh tubes, and stored at −20° C. for Western blot analysis. […] Molecular weight markers were loaded, the gel electrophoresed at 200V for 40 minutes.
The gels were electrotransferred to nitrocellulose membranes, and incubated in blocking buffer (Tris buffered saline plus 0.5% Tween-20 (TBS/T)+5% bovine serum albumin (BSA)) for 1 hour at room temperature. […]

B cell function = B cell function in vivo, antibody production after TNP-Ficoll immunization; conditions: mice immunized with TNP-Ficoll; 70 mg/kg GDC0941; 30, 60 or 120 mg/kg Compound A; 7 days; FIG. 8
Protocol: Mice were immunized with TNP-Ficoll and treated with 1) vehicle; 2) 70 mg/kg GDC0941; 3) 30 mg/kg Compound A; 4) 60 mg/kg Compound A; or 5) 120 mg/kg Compound A for 7 days. Antibody production was measured as a percentage of control group that were treated with vehicle.

`Nc1nc2cc(-c3ccc4ncc(C(=O)N5CCOCC5)n4c3)ccc2o1` [Compound A] was tested, and the “%TGI (Day 29)” value (MDA-MB-361 xenografts; Compound B 0.3 mg/kg, Compound A 60 mg/kg, alone or combined, PO QD 30 days, Day 29) was 77.4%, the “MTV on Day 29” value (MDA-MB-361 xenografts; Compound B 0.3 mg/kg, Compound A 60 mg/kg, alone or combined, PO QD, n = 8) was 165 mm^3 and 165 ± 105.8 mm^3 and the “%TGI (Day 65)” value (MDA-MB-361 xenografts; based on the control group (n = 4) on Day 65) was 69.5%. For the same compound, the “inhibition of proliferation of tumor cells” value [1] was “preferentially inhibits proliferation”, the “phosphorylation of downstream targets AKT, S6 and 4E-BP1 (Western blot, FIG. 15)” value [2] was “potently inhibited” and the “B cell function in vivo (antibody production, percentage of vehicle control)” value (B cell function) was “not”.
